The results in this text go back to ChEMBL document CHEMBL3351728, “3-alkoxy-pyrrolo[1,2-b]pyrazolines as selective androgen receptor modulators with ideal physicochemical properties for transdermal administration” (J Med Chem, 2014).

Each structure is given as a SMILES string. pEC50: −log10 of the molar value. Converted amounts (≈) assume the structure as drawn. The source made the active and inactive calls. The rule behind the calls is not given here.

Data set [1] concerns the target T1, Androgen receptor (Homo sapiens, UniProt P10275).
T1 sequence (P10275 whole entry): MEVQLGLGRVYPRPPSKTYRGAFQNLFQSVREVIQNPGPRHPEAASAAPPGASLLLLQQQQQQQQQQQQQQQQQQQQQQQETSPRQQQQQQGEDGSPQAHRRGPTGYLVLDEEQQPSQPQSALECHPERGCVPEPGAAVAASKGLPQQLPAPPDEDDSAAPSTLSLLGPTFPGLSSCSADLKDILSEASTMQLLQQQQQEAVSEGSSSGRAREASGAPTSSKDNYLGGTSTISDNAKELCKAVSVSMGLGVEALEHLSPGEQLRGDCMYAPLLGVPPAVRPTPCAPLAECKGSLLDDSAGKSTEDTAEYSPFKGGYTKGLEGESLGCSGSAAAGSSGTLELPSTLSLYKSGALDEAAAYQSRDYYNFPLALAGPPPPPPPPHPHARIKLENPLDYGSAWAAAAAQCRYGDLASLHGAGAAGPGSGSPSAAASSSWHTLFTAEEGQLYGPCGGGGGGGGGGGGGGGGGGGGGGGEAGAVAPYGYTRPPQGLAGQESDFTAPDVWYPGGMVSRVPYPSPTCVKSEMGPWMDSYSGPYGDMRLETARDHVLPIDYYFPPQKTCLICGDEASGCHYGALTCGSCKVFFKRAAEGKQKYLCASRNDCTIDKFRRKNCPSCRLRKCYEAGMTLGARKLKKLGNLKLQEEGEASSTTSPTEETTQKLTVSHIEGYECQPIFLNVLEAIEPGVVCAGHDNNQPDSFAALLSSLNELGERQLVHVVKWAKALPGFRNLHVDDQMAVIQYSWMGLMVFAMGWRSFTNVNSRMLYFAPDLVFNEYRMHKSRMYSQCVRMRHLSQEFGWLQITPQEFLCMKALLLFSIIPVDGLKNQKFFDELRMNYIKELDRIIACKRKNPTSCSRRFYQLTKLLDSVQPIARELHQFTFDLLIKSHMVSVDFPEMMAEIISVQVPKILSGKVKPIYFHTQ

Data set [2] has as its target T2, Androgen receptor (Homo sapiens) (UniProt P10275).
T2 sequence (whole entry): T1 sequence (P10275 whole entry)
Kind of data set: Agonist activity at human androgen receptor expressed in mouse C2C12 cells by androgen-specific response element-driven luciferase reporter gene assay relative to DHT. In kind it is cell-based.

In a further data set the test system is Zone of skin. Kind of data set: Skin permeability in human cadaver skin in Franz diffusion cell system. In kind it is ADME.
Data set [3] can be described thus: Lipophilicity, logP of the compound. Conditions: octanol/water. In kind it is physicochemical.
The nature of data set [4]: Thermodynamic solubility of the compound at pH 7.4. In kind it is physicochemical. Conditions: buffer, read-out: Therm_solubility.
Data set [5] is described as follows: Skin permeability by silicone and isopropyl myristate (70:30) containing artificial membranes based skin PAMPA method. In kind it is ADME.
Data set [6] can be described thus: Skin drug retention by silicone and isopropyl myristate (70:30) containing artificial membranes based skin PAMPA method.
In data set [7] the test system is Rattus norvegicus. Kind of data set: Androgenic activity in orchidectomized rat assessed as stimulation of prostate weight treated subcutaneously once daily for 14 days by Hershberger assay. In kind it is organism-based. The following applies: Prostate gland, sc, 336 h.
Data set [8] has as its system Rattus norvegicus. Kind of data set: Anabolic activity in orchidectomized rat assessed as stimulation of bulbocavernosus/levator ani muscle weight treated subcutaneously once daily for 14 days by Hershberger assay. The class given is functional. Conditions: sc, 336 h.
Data set [9] addresses T1, Androgen receptor. Conditions: c2c12.

In turn, `Cc1c(C2=NN3CC[C@H](O)[C@H]3[C@@H]2OC(C)C)ccc(C#N)c1Cl` had a pEC50 at Androgen receptor [1] of 8.35. The compound further gave a maximal effect (Emax) in data set [2] of 102%.

At Androgen receptor [1], `Cc1c(C2=NN3CC[C@H](O)[C@H]3[C@@H]2O)ccc(C#N)c1Cl` showed a pEC50 of 6.01. Further, in data set [2], the Emax worked out at 55%.

Take `CO[C@@H]1C(c2ccc(C#N)c(Cl)c2C)=NN2CC[C@@H](F)[C@@H]12`: in the data set on Zone of skin, the Jss is given as 1.2 ug/cm2.hr. In data set [3], the lipophilicity (logP) stood at 2.7. At Androgen receptor [1], this compound showed a negative-log EC50 (pEC50) of 9.80. The compound further came in with a maximal effect (Emax) in data set [2] of 98%. The solubility thermodynamic in data set [4] was determined as 10 µg/mL (≈ 32.5 µM). In addition, the permeability entry in data set [5] was “permeable”. Besides, the Drug uptake result in [6] was “inactive”.

At Androgen receptor [1], `CO[C@@H]1C(c2ccc(C#N)c(Cl)c2C)=NN2CC(=O)C[C@@H]12` had a negative-log EC50 (pEC50) of 7.59. Further, the maximal effect (Emax) in data set [2] amounted to 93%.

Regarding `CCO[C@@H]1C(c2ccc(C#N)c(Cl)c2C)=NN2CC[C@H](O)[C@@H]12`, the Jss in the data set on Zone of skin turned out to be 0.9 ug/cm2.hr. Besides, the logP in data set [3] amounted to 2.4. The negative logarithm of the EC50 (pEC50) at Androgen receptor [1] was 9.00. Besides, the maximal effect (Emax) in data set [2] worked out at 98.3%. The solubility thermodynamic in [4] worked out at 250 µg/mL (≈ 782 µM). In addition, the permeability entry in data set [5] was “permeable”. In addition, the Drug uptake result in [6] was “inactive”.

The compound `C[C@]12CC[C@H]3[C@@H](CCC4=CC(=O)CC[C@@]43C)[C@@H]1CC[C@@H]2O` [TESTOSTERONE] had a Jss in the data set with Zone of skin of 0.19 ug/cm2.hr. Moreover, the solubility thermodynamic in data set [4] was 40 µg/mL (≈ 139 µM). In data set [5], the permeability result is given as “permeable”. Further, the Drug uptake result in data set [6] is “inactive”.

In the data set on Zone of skin, `CO[C@@H]1C(c2ccc(C#N)c(Cl)c2C)=NN2CC[C@@H](O)[C@@H]12` showed a Jss of 0.2 ug/cm2.hr. The same compound yielded a lipophilicity (logP) in [3] of 1.9. In addition, on Androgen receptor [1], the negative logarithm of the EC50 (pEC50) is 9.40. Also, in data set [2], the Emax stood at 86.7%. The solubility thermodynamic in [4] came to 250 µg/mL (≈ 818 µM).

In the case of `CCC(=O)O[C@H]1CC[C@H]2[C@@H]3CCC4=CC(=O)CC[C@]4(C)[C@H]3CC[C@]12C` [TESTOSTERONE PROPIONATE], the figures for the 50% effective dose (ED50) with Rattus norvegicus [7] and in the data set on Rattus norvegicus [8] were 0.31 mg/kg and 0.29 mg/kg, respectively.

The compound `CO[C@H]1CCN2N=C(c3ccc(C#N)c(Cl)c3C)[C@@H](OC)[C@H]12` had a maximal response (Emax) in data set [2] of 82%.

For the compound `CO[C@@H]1C(c2ccc(C#N)c(Cl)c2C)=NN2C[C@@H](O)C[C@@H]12`, the EC50 entry on Androgen receptor [9] is given as “Not Active”. For the same compound, the Emax entry in data set [2] is “inactive”.

In the data set with Zone of skin, `CO[C@@H]1C(c2ccc(C#N)c(Cl)c2C)=NN2CC(F)(F)C[C@@H]12` gave a Jss of 0.06 ug/cm2.hr. In [3], this compound showed a logP of 3.2. Also, at Androgen receptor [1], the pEC50 was 9.52. For the same compound, the maximal effect (Emax) in [2] is 100%. Further, in data set [4], the solubility thermodynamic was 10 µg/mL (≈ 30.7 µM). In [5], the permeability result was “permeable”. Also, the Drug uptake entry in data set [6] is “Active”.

In the data set on Zone of skin, `COCCO[C@@H]1C(c2ccc(C#N)c(Cl)c2C)=NN2CC[C@H](O)[C@@H]12` gave a Jss of 1.1 ug/cm2.hr. Further, in data set [3], the lipophilicity (logP) was 2. Besides, the maximal effect (Emax) in data set [2] was 82%. Further, the solubility thermodynamic in data set [4] came out at 2300 µg/mL (≈ 6570 µM).

On to `CO[C@@H]1C(c2ccc(C#N)c(Cl)c2C)=NN2C[C@H](O)C[C@@H]12`, for which the pEC50 on Androgen receptor [1] was 8.01. Besides, in data set [2], the maximum response (Emax) worked out at 75%.

In the case of `CO[C@@H]1C(c2ccc(C#N)c(Cl)c2C)=NN2CC[C@H](F)[C@@H]12`, the pEC50 on Androgen receptor [1] was 8.82. This compound yielded a maximal response (Emax) in [2] of 93.5%.

`CO[C@@H]1C(c2ccc(C#N)c(Cl)c2C)=NN2C[C@@H](F)C[C@@H]12` showed a pEC50 at Androgen receptor [1] of 8.85. Besides, the Emax in [2] is 86%.
